Test results published in ChEMBL document CHEMBL1128990, “Design, synthesis, and characterization of dipeptide isostere containing cis-epoxide for the irreversible inactivation of HIV protease” (Bioorg Med Chem Lett, 1996).

Columns and labels:
[1] = molecular target: Human immunodeficiency virus type 1 protease (Human immunodeficiency virus 1, UniProt Q72874); test: Inhibitory activity against HIV protease was determined
[2] = molecular target: Human immunodeficiency virus type 1 protease (Human immunodeficiency virus 1) (UniProt Q72874); test: Kinetic parameter (kina) value was determined for the compound
Cathepsin D = Cathepsin D (Homo sapiens, UniProt P07339); test: Inhibitory activity against human cathepsin D was determined
Chain of Cathepsin D (P07339 65-162 limits assumed): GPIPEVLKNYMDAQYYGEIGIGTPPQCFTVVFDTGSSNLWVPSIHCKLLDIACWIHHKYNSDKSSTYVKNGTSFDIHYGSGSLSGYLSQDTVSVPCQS
Chain of Cathepsin D (P07339 169-412 limits assumed): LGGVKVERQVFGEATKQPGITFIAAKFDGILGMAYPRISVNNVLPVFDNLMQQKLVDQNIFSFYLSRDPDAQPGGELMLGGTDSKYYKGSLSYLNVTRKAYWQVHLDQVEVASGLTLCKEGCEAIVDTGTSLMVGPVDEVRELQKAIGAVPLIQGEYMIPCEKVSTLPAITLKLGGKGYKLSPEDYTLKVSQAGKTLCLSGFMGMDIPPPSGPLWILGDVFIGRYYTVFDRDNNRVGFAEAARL

For `CC(C)C(NC(=O)[C@@H]1O[C@@H]1[C@H](Cc1ccccc1)NC(=O)OCc1ccccc1)C(=O)O` (stereo partly specified), the Ki [1] was > 10000 µM and the Kina [2] was 0.02 min⁻¹.

`CCC(C)C(NC(=O)C[C@H]1O[C@H]1[C@H](Cc1ccccc1)NC(=O)C(CC(N)=O)NC(=O)c1ccc2ccccc2n1)C(=O)O` (mixture of isomers) was tested, and the Ki [1] was 0.018 µM and the Kina [2] was 0.22 min⁻¹.

`CC(C)C(NC(=O)C[C@H]1O[C@H]1[C@H](Cc1ccccc1)NC(=O)OCc1ccccc1)C(=O)O` (stereo partly specified) was tested, and the Ki [1] was 1.32 µM and the Kina [2] was 1.48 min⁻¹.

For `CC(C)C(NC(=O)C[C@H]1O[C@@H]1[C@H](Cc1ccccc1)NC(=O)OCc1ccccc1)C(=O)O` (stereo partly specified), the Ki [1] was 200 µM and the Kina [2] was 0.2 min⁻¹.

`CC(C)C(NC(=O)C[C@@H]1O[C@@H]1[C@H](Cc1ccccc1)NC(=O)C(CC(N)=O)NC(=O)c1ccc2ccccc2n1)C(C)C` (stereo partly specified) was tested, and the IC50 (Cathepsin D) was 12.5 µM, the Ki [1] was 0.001 µM and the Kina [2] was 0.2 min⁻¹.
